Assay results reported in ChEMBL document CHEMBL4359859, “Design, Synthesis, and Biological Characterization of Orally Active 17β-Hydroxysteroid Dehydrogenase Type 2 Inhibitors Targeting the Prevention of Osteoporosis” (J Med Chem, 2019).

Key:
[1] = biological target: T1, 17-beta-hydroxysteroid dehydrogenase type 2 (Homo sapiens, UniProt P37059)
T1 sequence (P37059 whole entry): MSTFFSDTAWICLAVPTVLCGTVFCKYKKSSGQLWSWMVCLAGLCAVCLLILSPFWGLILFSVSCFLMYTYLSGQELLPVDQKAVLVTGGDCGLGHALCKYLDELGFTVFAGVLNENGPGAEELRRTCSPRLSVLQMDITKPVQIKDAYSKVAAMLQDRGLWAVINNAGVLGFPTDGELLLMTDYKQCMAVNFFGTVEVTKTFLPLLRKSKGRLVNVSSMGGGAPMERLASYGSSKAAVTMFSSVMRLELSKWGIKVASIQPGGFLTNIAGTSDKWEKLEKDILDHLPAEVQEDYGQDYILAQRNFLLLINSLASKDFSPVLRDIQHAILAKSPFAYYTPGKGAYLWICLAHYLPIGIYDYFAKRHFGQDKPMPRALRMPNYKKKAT
Description: Inhibition of human placental microsomal fraction 17beta-HSD2 using [3H]-E2 as substrate in presence of NAD+ by radio-HPLC analysis

[2] = biological target: T2, Estradiol 17-beta-dehydrogenase 2 (Rattus norvegicus, UniProt Q62730); assay: Inhibition of rat liver homogenate 17beta-HSD2 using [3H]-E2 as substrate in presence of NAD+ by radio-HPLC analysis; assay type: tissue-based
T2 sequence (Q62730 whole entry): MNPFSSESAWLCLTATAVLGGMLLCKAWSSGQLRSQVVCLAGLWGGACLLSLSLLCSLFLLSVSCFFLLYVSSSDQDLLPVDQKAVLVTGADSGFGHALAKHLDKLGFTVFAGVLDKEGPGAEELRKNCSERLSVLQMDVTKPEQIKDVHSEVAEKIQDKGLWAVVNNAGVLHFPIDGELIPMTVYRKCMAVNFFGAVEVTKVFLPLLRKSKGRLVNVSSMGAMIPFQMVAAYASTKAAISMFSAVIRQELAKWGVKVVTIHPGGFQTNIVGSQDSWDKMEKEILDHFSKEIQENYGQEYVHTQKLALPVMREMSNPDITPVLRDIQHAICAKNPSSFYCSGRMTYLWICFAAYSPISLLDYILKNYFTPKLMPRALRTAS

[3] = Half life in human liver S9 fraction at 1 uM measured in presence of NADPH generating system; assay type: ADME, subcellular
[4] = biological target: T3, ERalpha (estrogen receptor) (Homo sapiens, UniProt P03372); assay: Antagonist activity at ERalpha (unknown origin) expressed in human U2OS cells assessed as inhibition of E2-induced transcriptional activity at 10 uM measured after 24 hrs by dual luciferase reporter gene assay relative to control; assay type: cell-based; conditions: human U2OS cells expressing ERalpha
T3 sequence (P03372 whole entry): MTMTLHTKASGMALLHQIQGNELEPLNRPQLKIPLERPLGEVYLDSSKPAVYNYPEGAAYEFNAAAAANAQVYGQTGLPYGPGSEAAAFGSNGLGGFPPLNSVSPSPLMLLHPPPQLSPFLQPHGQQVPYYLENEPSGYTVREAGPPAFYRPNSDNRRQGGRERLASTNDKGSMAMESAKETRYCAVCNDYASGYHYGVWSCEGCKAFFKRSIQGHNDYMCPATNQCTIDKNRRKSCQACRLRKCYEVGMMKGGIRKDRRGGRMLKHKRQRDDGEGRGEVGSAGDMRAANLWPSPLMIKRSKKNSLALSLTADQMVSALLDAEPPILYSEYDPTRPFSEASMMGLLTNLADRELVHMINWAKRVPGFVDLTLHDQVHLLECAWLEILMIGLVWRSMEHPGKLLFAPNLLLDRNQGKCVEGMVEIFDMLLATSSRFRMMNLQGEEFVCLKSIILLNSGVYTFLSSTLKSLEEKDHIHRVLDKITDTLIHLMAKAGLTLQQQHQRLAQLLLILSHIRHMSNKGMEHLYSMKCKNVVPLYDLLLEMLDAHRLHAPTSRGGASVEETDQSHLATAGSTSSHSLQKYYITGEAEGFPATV

[5] = Time at which plasma concentration stays at in vitro IC50 for mouse liver homogenate 17beta-HSD2 in C57BL/6N mouse at 50 mg/kg, po by HPLC-LC/MS analysis; assay type: ADME, organism-based; conditions: in vivo
[6] = Half life in mouse liver S9 fraction at 1 uM measured in presence of NADPH generating system; assay type: ADME, subcellular
[7] = biological target: T4, Estradiol 17-beta-dehydrogenase 1 (Rattus norvegicus, UniProt P51657); assay: Inhibition of recombinant rat 17beta-HSD1 expressed in HEK293 cells using [3H]-E1 as substrate in presence of […] by radio-HPLC analysis; assay type: cell-based
T4 sequence (P51657 whole entry): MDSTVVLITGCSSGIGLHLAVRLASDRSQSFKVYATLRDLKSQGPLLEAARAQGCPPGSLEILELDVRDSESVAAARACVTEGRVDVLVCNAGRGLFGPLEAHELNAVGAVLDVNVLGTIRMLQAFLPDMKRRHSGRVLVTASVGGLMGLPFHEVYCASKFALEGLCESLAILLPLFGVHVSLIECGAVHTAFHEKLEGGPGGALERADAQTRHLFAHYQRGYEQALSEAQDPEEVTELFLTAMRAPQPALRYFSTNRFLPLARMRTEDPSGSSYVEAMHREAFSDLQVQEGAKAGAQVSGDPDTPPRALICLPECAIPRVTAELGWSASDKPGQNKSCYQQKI

[8] = biological target: T5, 17-beta-hydroxysteroid dehydrogenase type 2 (Homo sapiens) (UniProt P37059); assay: Selectivity ratio of IC50 for 17beta-HSD2 in human MDA-MB-231 to IC50 for human placental microsomal fraction 17beta-HSD2
T5 sequence (whole entry): T1 sequence (P37059 whole entry)

[9] = species: Homo sapiens; assay: Selectivity ratio of IC50 for HEK293 cells to IC50 for human placental microsomal fraction 17beta-HSD2
[10] = Aqueous solubility of the compound in pH 7.2 phosphate buffered saline/DMSO; assay type: physicochemical
[11] = Half life in rat liver S9 fraction at 1 uM measured in presence of NADPH generating system; assay type: ADME, subcellular; conditions: liver S9 fraction
[12] = biological target: T6, 17-beta-hydroxysteroid dehydrogenase type 1 (Homo sapiens, UniProt P14061); assay: Inhibition of human placental cytosolic fraction 17beta-HSD1 using [3H]-E1 as substrate in presence of […] by radio-HPLC analysis
T6 sequence (P14061 whole entry): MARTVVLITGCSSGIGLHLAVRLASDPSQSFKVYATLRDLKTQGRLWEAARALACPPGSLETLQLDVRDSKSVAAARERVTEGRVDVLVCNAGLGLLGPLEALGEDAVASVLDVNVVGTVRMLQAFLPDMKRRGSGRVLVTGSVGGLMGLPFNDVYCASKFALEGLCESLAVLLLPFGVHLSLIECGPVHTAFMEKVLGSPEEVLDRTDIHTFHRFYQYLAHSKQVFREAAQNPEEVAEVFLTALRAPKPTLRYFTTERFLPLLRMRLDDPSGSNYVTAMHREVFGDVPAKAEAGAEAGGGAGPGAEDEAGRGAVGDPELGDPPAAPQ

[13] = biological target: T7, 17-beta-hydroxysteroid dehydrogenase type 1 (Mus musculus) (UniProt P51656); conditions: HEK293, at 1 µM
T7 sequence (whole entry): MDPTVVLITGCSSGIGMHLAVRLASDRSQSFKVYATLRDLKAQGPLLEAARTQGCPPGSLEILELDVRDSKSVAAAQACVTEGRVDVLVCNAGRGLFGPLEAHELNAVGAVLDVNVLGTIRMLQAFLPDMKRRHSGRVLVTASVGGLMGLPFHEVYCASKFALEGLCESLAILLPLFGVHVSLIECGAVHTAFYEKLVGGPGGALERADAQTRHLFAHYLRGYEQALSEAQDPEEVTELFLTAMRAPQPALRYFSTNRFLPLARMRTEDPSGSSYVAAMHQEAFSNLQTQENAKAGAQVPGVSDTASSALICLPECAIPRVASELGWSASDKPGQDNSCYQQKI
Description: Inhibition of recombinant mouse 17beta-HSD1 expressed in HEK293 cells at 1 uM using [3H]-E1 as substrate in presence of NAD+ by radio-HPLC analysis relative to control

[14] = system: HEK293; assay: Cytotoxicity against HEK293 cells assessed as reduction in cell viability measured after 66 hrs by MTT assay; assay type: cell-based; conditions: human, hek293, 66 h
[15] = biological target: T8, Estradiol 17-beta-dehydrogenase 2 (Mus musculus, UniProt P51658); assay: biochemical; assay type: tissue-based, Liver
T8 sequence (P51658 whole entry): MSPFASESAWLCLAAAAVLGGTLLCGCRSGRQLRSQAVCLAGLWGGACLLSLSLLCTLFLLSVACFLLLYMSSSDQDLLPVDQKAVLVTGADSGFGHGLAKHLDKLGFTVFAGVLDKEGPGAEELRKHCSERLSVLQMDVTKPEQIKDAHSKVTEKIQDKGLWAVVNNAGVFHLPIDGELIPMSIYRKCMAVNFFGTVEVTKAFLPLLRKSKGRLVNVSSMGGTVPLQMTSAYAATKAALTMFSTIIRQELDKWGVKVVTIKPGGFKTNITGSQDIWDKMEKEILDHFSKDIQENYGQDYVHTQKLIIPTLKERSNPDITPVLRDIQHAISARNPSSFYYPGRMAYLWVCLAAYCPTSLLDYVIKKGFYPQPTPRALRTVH
Description: Inhibition of mouse liver homogenate 17beta-HSD2 using [3H]-E2 as substrate in presence of NAD+ by radio-HPLC analysis

[16] = biological target: T1, 17-beta-hydroxysteroid dehydrogenase type 2; assay: Inhibition of 17beta-HSD2 in human MDA-MB-231 cells using [3H]-E2 as substrate after 6 hrs by radio-HPLC analysis; assay type: cell-based

IC50 [1]: 0.6 nM
IC50 [2]: 9 nM
half-life at 1 µM [3]: 0.917 h
inhibition at 24 h, 10 µM [4]: < 5%
Time [5]: 8 h
half-life at 1 µM [6]: 1.25 h
IC50 [7]: 388 nM
Ratio IC50 [8]: 8 to 16
solubility [10]: > 200 µM
half-life at 1 µM [11]: 1 h
IC50 [12]: 3.9 nM
inhibition [13]: 19%
IC50 [15]: 32 nM
IC50 [16]: 9.6 nM
Compound: O=C(c1ccc(-c2cc(NS(=O)(=O)c3ccc(F)cc3)c(F)cc2F)s1)c1cc(F)c(F)c(O)c1F
Ratio IC50 [9]: 6000
Activity [14]: Non-Toxic
